Test results taken from PMC10107299, “Neutralizing the Impact of the Virulence Factor LecA from Pseudomonas aeruginosa on Human Cells with New Glycomimetic Inhibitors” (Angewandte Chemie (International Ed. in English), 2023).
Converted amounts (≈) assume the structure as drawn. “And” between values parts separate entries of the source, which are not always exact repeats. Equal entries are not always repeated.

Legend:
[1] = Kinetic solubility in TBS/Ca2+ buffer (HPLC-MS); format: physicochemical; conditions: aqueous buffer, kinetic from dmso stock; TBS/Ca2+ buffer pH 7.4, 1 % DMSO, N≥3; read-out: Solubility S (kinetic)
Experimental: Next, we quantified the solubility of at least one representative of each new class and of one parent bisacylhydrazone in aqueous media (Table 1). […]
TBS/Ca2+ buffer (20 mM Tris, 137 mM NaCl, 2.6 mM KCl at pH 7.4 supplemented with 1 mM […]
(§1) CaCl2) in presence of 25% DMSO. […]
Kinetic solubility was determined on the analytical HPLC-MS using Compass QuantAnalysis quantification software (Bruker). Samples were prepared from DMSO stock solutions by dilution with TBS/Ca2+ buffer to 100 µM with 1% DMSO present. Samples were incubated on a shaker for 1 h at r.t., centrifuged (21380 g, 20 min), supernatants were diluted with DMSO (1:3), analyzed by HPLC-MS and fitted to the individual calibration curves.
Every experiment was repeated independently at least three times. […]

LecA [2] = molecular target: T1, LecA (Pseudomonas aeruginosa, UniProt Q05097); experiment: Competitive binding assay based on fluorescence polarization
T1 construct: made in house
Experimental: All synthesized galactosides were then evaluated for LecA inhibition using a competitive binding assay based on fluorescence polarization (Figure S1).[24]
Expression and purification of LecA as well as competitive binding by fluorescence polarization was performed as described by Joachim et al..[9] The assay was performed in TBS/Ca2+ buffer (20 mM Tris, 137 mM NaCl, 2.6 mM KCl at pH 7.4 supplemented with 1 mM CaCl2) in presence of 25% DMSO. Averages and standard deviations were calculated from at least three independent experiments. […]
RR OR In h i b i to r [µ M ]
R R In h i b i to r [µ M ] […]
R In h i b i to r [µ M ] 30 L2
30 F2 40 K2 In h i b i to r [µ M ] […]
In h i b i to r [µ M ] In h i b i to r [µ M ]
Figure S1: Evaluation of amide divalent LecA ligands in a competitive binding assay based on fluorescence […]
representative experiment is shown or each series. Averages and standard deviations from at least three independent titrations of triplicates each.
[…] Fluorescence polarization [mP] -1 0 1 2 3 0 1001010 Me-α-Gal pNO2-Ph-β-Gal 1000 Inhibitor [µM] Fluorescence polarization [mP])

LecA [3] = molecular target: T1, LecA; experiment: Direct binding to immobilized LecA by surface plasmon resonance (SPR); conditions: for kon: SPR single-cycle kinetics, 25 °C, N=3 (I1 N=1); for Relative potency r.p. (SPR): compared to respective monovalent compound in each series
Experimental: K d values were oscillating with the number of methylene units present in the linker, presumably linked to the zig‐zag geometry of the hydrocarbon chain.
Expression and purification of LecA as well as competitive binding by fluorescence polarization was performed as described by Joachim et al..[9] […]
Surface plasmon resonance experiments were performed on a BIACORE X100 instrument (GE Healthcare) at 25 °C as described by Zahorska et. al..[8] Averages and standard deviations were calculated from three independent experiments. […]
Figure S3: SPR of divalent LecA ligands from benzene series. Sensorgrams obtained from SPR single-cycle kinetics experiments. Five different concentrations of each compound (0, 10, 50, 100, 200 nM) were sequentially injected to obtain the experimental sensorgrams (blue lines), which were then fitted by a 1:1 model (orange) on BIACORE evaluation software. […]
Figure S4: SPR of divalent LecA ligands from pyridine and sulfonated series. Sensorgrams obtained from SPR single-cycle kinetics experiments. Five different concentrations of each compound (0, 10, 50, 100, 200 nM) were sequentially injected to obtain the experimental sensorgrams (blue lines), which were then fitted by a 1:1 model (orange) on BIACORE evaluation software.
(also on this page, place not known: Response (RU)0 Response (RU)0 Response (RU) Response (RU) Response (RU) Response (RU) 030060090012001500) […]

LecA [4] = molecular target: T1, LecA; experiment: Isothermal titration microcalorimetry (ITC) with LecA; format: binding; conditions: for -TΔS (supplement) / ΔS: ITC average ± s.d.; for Relative potency r.p. (ITC): compared to respective monovalent compound in each series; for ΔG, individual titration / ΔH, individual titration: LecA 35-182 µM, ligand 100 µM-1.5 mM as headed
Description: Due to the high solubility of the propanamides in the pyridine series and the sulfonated ligand L2, we determined binding thermodynamics with LecA using isothermal titration microcalorimetry (ITC, Figure 3, Figures S5–S9). […] In both cases, the enthalpy of binding increased approximately twofold (I2: ΔH=−23.9±1.2 kcal mol^−1, L2: ΔH=−19.5±1.3 kcal mol^−1) compared to their monovalent analogues (G2: ΔH=−11.0±0.2 kcal mol^−1, K2: ΔH=−10.3±0.1 kcal mol^−1), while the binding entropy was increased approximately threefold (G2: −TΔS=3.8±0.2 kcal mol^−1 vs. I2: −TΔS=13.7±1.3 kcal mol^−1, K2: −TΔS=3.2±0.2 kcal mol^−1 vs. L2: −TΔS=9.4±1.3 kcal mol^−1).
Figure 3 Direct binding of selected ligands to LecA by ITC (N=3). Titration of LecA (50 μM) with divalent sulfonated ligand L2 (250 μM) is depicted. Relative potencies (r.p.) were calculated compared to respective monovalent compound in each series and […]. TEXT PRINTED IN THE PICTURE: G2: ΔG [kcal/mol]: -7.2 ± 0.1; ΔH [kcal/mol]: -11.0 ± 0.2; -TΔS [kcal/mol]: 3.8 ± 0.2; N: 1.07 ± 0.06; Kd [nM]: 5 270 ± 30; r.p.: 1 | I2: ΔG [kcal/mol]: -10.2 ± 0.2; ΔH [kcal/mol]: -23.9 ± 1.2; -TΔS [kcal/mol]: 13.7 ± 1.3; N: 0.43 ± 0.01; Kd [nM]: 35.1 ± 12.5; r.p.: 150 | J2: ΔG [kcal/mol]: -9.7 ± 0.2; ΔH [kcal/mol]: -13.5 ± 0.4; -TΔS [kcal/mol]: 3.8 ± 0.5; N: 0.61 ± 0.06; Kd [nM]: 79.5 ± 32.8; r.p.: 66 | K2: ΔG [kcal/mol]: -7.1 ± 0.1; ΔH [kcal/mol]: -10.3 ± 0.1; -TΔS [kcal/mol]: 3.2 ± 0.2; N: 1.08 ± 0.13; Kd [nM]: 6 230 ± 440; r.p.: 1 | L2: ΔG [kcal/mol]: -10.1 ± 0.1; ΔH [kcal/mol]: -19.5 ± 1.3; -TΔS [kcal/mol]: 9.4 ± 1.3; N: 0.52 ± 0.06; Kd [nM]: 39.9 ± 3.6; r.p.: 156 […]
Expression and purification of LecA as well as competitive binding by fluorescence polarization was performed as described by Joachim et al..[9] The assay was performed in TBS/Ca2+ buffer (20 mM Tris, 137 mM NaCl, 2.6 mM KCl at pH 7.4 supplemented with 1 mM […]
as §1
Isothermal titration calorimetry was performed on an iTC200 (Malvern Panalytical) and the data were analyzed using Microcal Origin software (Malvern Panalytical). LecA (50 - 180 […]
K2 and L2 and TBS/Ca2+ buffer supplemented with 5% DMSO for I2 and J2. Steep titration slopes achieved with the divalent ligands were the result of high amount of protein present and the high binding affinity of the ligand (high ‘value of c’).[10] However, LecA protein […]
low heat released upon binding. […]

[5] = ITC average, 25 °C, TBS/Ca2+ buffer (5% DMSO for I2 and J2), N=3
[6] = Kd (ITC), ITC average, 25 °C, TBS/Ca2+ buffer (5% DMSO for I2 and J2), N=3
[7] = Kd, individual titration, single ITC titrations, three per ligand
[8] = single ITC titrations, three per ligand

T1 sequence (Q05097 whole entry): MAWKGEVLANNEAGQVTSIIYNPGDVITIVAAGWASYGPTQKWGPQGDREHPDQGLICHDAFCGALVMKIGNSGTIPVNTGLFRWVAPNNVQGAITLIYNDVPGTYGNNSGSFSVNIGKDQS

SMILES | solubility kinetic at 1 h [1] | IC50 (LecA [2]) | Kd (LecA [3]) | koff (LecA [3]) | kon (LecA [3]) | Relative potency r.p. (SPR) (LecA [3]) | -TΔS (supplement) (LecA [4]; 25 °C) | ΔS (LecA [4]; 25 °C) | N (stoichiometry) (LecA [4]; ITC average, 25 °C, N=3) | -TΔS (LecA [4]; [5]) | ΔG (LecA [4]; [5]) | ΔH (LecA [4]; [5]) | Kd (LecA [4]; [6]) | Kd (LecA [4]; [7]) | Relative potency r.p. (ITC) (LecA [4]) | N, individual titration (LecA [4]; [8]) | ΔS, individual titration (LecA [4]; [8]) | ΔG, individual titration (LecA [4]; [8]) | ΔH, individual titration (LecA [4]; [8])
O=C(CCc1ccc(O[C@@H]2O[C@H](CO)[C@H](O)[C@H](O)[C@H]2O)cc1)Nc1ccc(OCCCOc2ccc(NC(=O)CCc3ccc(O[C@@H]4O[C@H](CO)[C@H](O)[C@H](O)[C@H]4O)cc3)cn2)nc1 [Compound I2] | 63.3 ± 4.2 µM (≈ 55.8 µg/mL) | 3200 ± 1300 nM | 30.8 ± 1.5 nM | 0.00809 ± 0.00124 s⁻¹ | 262 ± 28 x10^3/Ms | 97 | 13.7 ± 1.3 kcal/mol | -45.9 ± 4.5 cal/mol/K | 0.43 ± 0.01 | 13.7 ± 1.3 kcal/mol | -10.2 ± 0.2 kcal/mol | -23.9 ± 1.2 kcal/mol | 35.1 ± 12.5 nM | 48.3 nM and 38.8 nM and 18.3 nM | 150 | 0.44 (2×) and 0.43 | -51.6 cal/mol/K and -40.6 cal/mol/K and -45.6 cal/mol/K | -10.0 kcal/mol and -10.1 kcal/mol and -10.6 kcal/mol | -23.6 kcal/mol and -25.5 kcal/mol and -22.7 kcal/mol
O=C(CCc1ccc(O[C@@H]2O[C@H](CO)[C@H](O)[C@H](O)[C@H]2O)cc1)Nc1ccc(OCCCCOc2ccc(NC(=O)CCc3ccc(O[C@@H]4O[C@H](CO)[C@H](O)[C@H](O)[C@H]4O)cc3)cn2)nc1 [Compound J2] | 13.7 ± 1.7 µM (≈ 12.3 µg/mL) | 3400 ± 1300 nM | 25.1 ± 1.9 nM | 0.0068 ± 0.00265 s⁻¹ | 267 ± 84 x10^3/Ms | 118 | 3.8 ± 0.5 kcal/mol | -12.6 ± 1.8 cal/mol/K | 0.61 ± 0.06 | 3.8 ± 0.5 kcal/mol | -9.7 ± 0.2 kcal/mol | -13.5 ± 0.4 kcal/mol | 79.5 ± 32.8 nM | 59.9 nM and 52.9 nM and 126 nM | 66 | 0.53 and 0.62 and 0.69 | -10.1 cal/mol/K and -13.8 cal/mol/K and -14.0 cal/mol/K | -9.9 kcal/mol (2×) and -9.4 kcal/mol | -14.0 kcal/mol and -12.9 kcal/mol and -13.5 kcal/mol
